Measured values reported in ChEMBL document CHEMBL1127944, “Synthesis of the potent and selective atypical -adrenergic agonist SR 59062A” (Bioorg Med Chem Lett, 1994).

Legend:
[1] = target: T1, Adrenergic receptor beta (Rattus norvegicus, UniProt P18090+P10608+P26255); assay: Beta-adrenergic agonistic activity in rat uterus preincubated with phenoxybenzamine (12 uM) for 30 min; type: functional, tissue-based
[2] = target: T1, Adrenergic receptor beta; assay: Beta-adrenergic agonistic activity in rat proximal colon; type: functional
[3] = target: Adrenergic receptor beta (Homo sapiens, UniProt P08588+P07550+P13945); assay: Beta-adrenergic agonistic activity in guinea-pig atrium preincubated with phenoxybenzamine (12 uM) for 30 min; type: functional, tissue-based, Cavia porcellus, Cardiac atrium; conditions: target entry is the homologue from another species
[4] = target: T1, Adrenergic receptor beta; assay: Beta-adrenergic agonistic activity in rat proximal colon in presence of phentolamine (10 uM), desmethylimipramine (0.5 uM) and hydrocortisone (30 uM); type: functional, tissue-based

IC50 [1]	IC50 [2]	EC50 [3]	IC50 [4]	SMILES
0.185 µM	0.09 µM	> 30 µM	–	CCOC(=O)c1ccc2c(c1)CC(NCC(O)c1cccc(Cl)c1)CC2.Cl (stereo not drawn)
0.48 µM	–	> 30 µM	0.0009 µM	CCOC(=O)CCc1ccc2c(c1)C[C@H](NC[C@H](O)c1cccc(Cl)c1)CC2.Cl
0.35 µM	0.021 µM	> 30 µM	–	CCOC(=O)CCc1ccc2c(c1)CC(NCC(O)c1cccc(Cl)c1)CC2.Cl (stereo not drawn)
0.319 µM	–	> 30 µM	0.00109 µM	CCOC(=O)CCc1ccc2c(c1)C[C@@H](NC[C@H](O)c1cccc(Cl)c1)CC2.Cl
1.2 µM	0.047 µM	> 30 µM	–	CCOC(=O)COc1ccc2c(c1)C[C@@H](NC[C@H](O)c1cccc(Cl)c1)CC2.Cl (mixture of isomers) [AMIBEGRON HYDROCHLORIDE]
0.499 µM	–	> 30 µM	0.0035 µM	CCOC(=O)COc1ccc2c(c1)C[C@@H](NC[C@H](O)c1cccc(Cl)c1)CC2.Cl [AMIBEGRON HYDROCHLORIDE]
